The source made the active and inactive calls. The calls are words filed in the database; no cut-off is given here.
Legend:
[1] = molecular target: T1, Amyloid-beta precursor protein (Homo sapiens, UniProt P05067); assay: Displacement of [3H]PIB from human amyloid beta (1 to 40) after 30 mins by liquid scintillation counting
[2] = Lipophilicity, log D of the compound; format: physicochemical; conditions: octanol/water
[3] = molecular target: T1, Amyloid-beta precursor protein; assay: Binding affinity to Abeta (1 to 40) in brain cortex of patient with Alzheimer's disease by autoradiography relative to non-specific unlabelled PIB binding; format: tissue-based; conditions: tested as the 3H-labelled form
Mus musculus = assay: Ex vivo binding affinity to amyloid beta (1 to 40) of APP/PS1 transgenic mouse brain at 10.3 nmol/kg, iv after 10 mins by autoradiography; format: functional, organism-based; conditions: tested as the 3H-labelled form

T1 sequence (P05067 whole entry): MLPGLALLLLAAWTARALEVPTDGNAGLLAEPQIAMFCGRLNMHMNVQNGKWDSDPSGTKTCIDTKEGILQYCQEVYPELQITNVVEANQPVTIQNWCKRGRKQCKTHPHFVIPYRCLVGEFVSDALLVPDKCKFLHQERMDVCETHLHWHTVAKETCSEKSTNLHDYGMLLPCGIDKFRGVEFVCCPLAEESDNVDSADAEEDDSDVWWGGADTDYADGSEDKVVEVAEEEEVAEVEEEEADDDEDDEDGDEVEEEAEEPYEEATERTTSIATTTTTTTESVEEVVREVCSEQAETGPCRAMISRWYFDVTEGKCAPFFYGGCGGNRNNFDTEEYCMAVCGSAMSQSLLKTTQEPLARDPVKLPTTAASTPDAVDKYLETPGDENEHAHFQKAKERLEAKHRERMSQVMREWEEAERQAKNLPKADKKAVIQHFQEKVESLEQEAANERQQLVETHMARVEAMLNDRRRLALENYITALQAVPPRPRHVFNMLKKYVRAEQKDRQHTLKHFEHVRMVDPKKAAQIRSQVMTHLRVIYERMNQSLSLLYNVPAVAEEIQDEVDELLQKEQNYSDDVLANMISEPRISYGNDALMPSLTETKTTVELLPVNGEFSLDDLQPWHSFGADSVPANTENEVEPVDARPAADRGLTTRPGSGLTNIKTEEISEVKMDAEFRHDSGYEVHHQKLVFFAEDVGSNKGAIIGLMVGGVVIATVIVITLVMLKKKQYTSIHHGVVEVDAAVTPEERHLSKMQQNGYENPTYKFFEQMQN

Row | Structure (SMILES) | IC50 [1] [nM] | logD [2] | Activity [3] | Activity (Mus musculus)
1 | COc1ccc2nc(-c3ccc(N(C)C)nc3)sc2c1 | 81 | 4.2 |  | 
2 | COc1ccc2cc(-c3ccc(C(N)=O)nc3)oc2c1 | 60 | 1.7 |  | 
3 | CNc1ccc(-c2nc3ccc(OC)cc3s2)cn1 |  |  | inactive | 
4 | [3H]C([3H])([3H])N(c1ccc(-c2nc3ccc(OC)cc3o2)cn1)C([3H])([3H])[3H] | 204 | 3.7 |  | 
5 | CNc1ccc(-c2nc3ccc(OC)cc3o2)cn1 |  | 2.7 |  | 
6 | CN(C)c1ncc(-c2nc3ccc(O)cc3s2)cn1 | 41 | 2.2 |  | 
7 | [3H]N(c1ccc(-c2nc3ccc(O)cc3o2)cn1)C([3H])([3H])[3H] | 182 | 1.3 |  | 
8 | CN(C)c1ccc(-c2nc3cc(O)ccc3o2)cn1 | 137 | 2.2 |  | 
9 | CNc1ccc(-c2nc3ccc(O)cc3s2)cc1 |  |  |  | Active
10 | CNc1ccc(-c2nc3ccc(O)cc3o2)cn1 |  |  | Active | Active
11 | CNc1ccc(-c2nc3ccc(O)cc3s2)cn1 |  |  | Active | Active
12 | [3H]N(c1ccc(-c2nc3ccc(O)cc3s2)cn1)C([3H])([3H])[3H] | 58 | 1.8 |  | 
13 | CNc1ncc(-c2nc3ccc(O)cc3s2)cn1 | 267 | 0.9 |  | 
14 | CNc1ccc2nc(-c3ccc(C(N)=O)nc3)sc2c1 | 35 | 1.7 |  | 
15 | [3H]C([3H])([3H])N(c1ccc(-c2nc3ccc(O)cc3s2)cn1)C([3H])([3H])[3H] | 19 | 2.4 |  | 
16 | CNc1ccc(-c2nc3ccc(C(N)=O)cc3s2)cn1 | 85 | 0.5 |  | 
17 | CNc1ccc(-c2cc3ccc(OC)cc3o2)cn1 | 66 | 3.8 |  | 
18 | [3H]N(c1ccc(-c2nc3ccc(OC)cc3s2)cn1)C([3H])([3H])[3H] | 58 | 3.2 |  | 
19 | [3H]C([3H])([3H])N(c1ncc(-c2nc3ccc(O)cc3o2)cn1)C([3H])([3H])[3H] | 75 | 1.8 |  | 
20 | CNc1ccc(-c2nc3cc(O)ccc3s2)cn1 | 74 | 1.5 |  | 
21 | [3H]C([3H])([3H])N(c1ccc(-c2nc3ccc(O)cc3o2)cn1)C([3H])([3H])[3H] | 85 | 1.9 |  | 
22 | CNc1ccc(-c2cc3ccc(O)cc3o2)cn1 | 45 | 2 |  | 
23 | COc1ccc2nc(-c3ccc(N(C)C)nc3)oc2c1 |  |  | inactive | 
24 | COc1ccc2cc(-c3ccc(C(N)=O)cn3)oc2c1 | 33 | 2.8 |  | 
25 | CN(C)c1ccc(-c2nc3ccc(O)cc3s2)cn1 |  |  | inactive | 

— ChEMBL document CHEMBL1155386, “Synthesis and evaluation of 2-pyridylbenzothiazole, 2-pyridylbenzoxazole and 2-pyridylbenzofuran derivatives as 11C-PET imaging agents for beta-amyloid plaques” (Bioorg Med Chem Lett, 2010)
